Assay results as given in patent US20180161386A1, “PHARMACEUTICAL COMPOSITION FOR TREATMENT OF DEPRESSION AND PREPARATION METHOD THEREOF” (THISHERB HEALTH PTY LTD, priority 2015, published 2018).
Counter-ions that a name gives are not always drawn.

What was measured:
mice [1] = test: opening test (independent activity, open box); type: in vivo, mouse
From the text: (§1) 1.1 Drug testing and reagents: The capsules pharmaceutical compositions for the treatment of depression in form of obtained in Example 2 compared with fluoxetine hydrochloride. 1.2 Animals: 20 male and 20 female mice provided by the Experimental Animal Center; average body mass of 18-22 g. 1.3 Instruments: Mouse-tail suspension device (a wooden board of about 1 meter in length, fixed onto a desktop with a horizontal distance of about 15 cm), swimming model device (a glass tank with a height of 30 cm, a diameter of 14 cm, a water depth of 10 cm, and temperature of 25° C.), and homemade open box. 1.4 Grouping: The mice were fed for one week, during which time the mice feed and drink freely. The mice were randomly divided into four groups of control group, depression capsule low-dose group (hereinafter referred to as the low-dose group), depression capsule high-dose group (hereinafter referred to as the high-dose group), the positive groups, 10 mice per group. […]
A wooden box was provided with 36 cm×36 cm×27 cm, the bottom of which is divided into 25 squares. The test was performed in 1 h after last drug administration, and the number of the mouse crossing the grids and vertical climbing within last 3 min for 5 min period was recorded.

mice [2] = test: mouse forced swimming test; type: in vivo
From the text: 1.1 Drug testing and reagents: The capsules pharmaceutical compositions for the treatment of depression in form of obtained in Example 2 compared with fluoxetine hydrochloride. 1.2 Animals: 20 male and 20 female mice provided by the Experimental Animal Center; average body mass of 18-22 g. 1.3 Instruments: Mouse-tail suspension device (a wooden board of about 1 meter in length, fixed onto a desktop with a horizontal distance of about 15 cm), swimming model device (a glass tank with a height of 30 cm, a diameter of 14 cm, a water depth of 10 cm, and temperature of 25° C.), and homemade open box. 1.4 Grouping: The mice were fed for one week, during which time the mice feed and drink freely. The mice were randomly divided into four groups of control group, depression capsule low-dose group (hereinafter referred to as the low-dose group), depression capsule high-dose group (hereinafter referred to as the high-dose group), the positive groups, 10 mice per group. 1.5 Drug administration: The control group was given saline daily at 0.2 ml/10 g; the positive control group was given fluoxetine hydrochloride 2.4 mg/kg; the low-dose group was given depression capsules 1.05 g/kg; and the high-dose group was given depression capsules 4.20 g/kg. The route of administration was directly into the stomach.
1.6.2 Mouse forced swimming test: Refer to method by Prosolt et al. […]

mice [3] = test: mouse-tail suspension test; type: in vivo
From the text: as §1
The mouse was suspended by its tail so that the tail was adhered (1 cm from the tail end of the mouse) to the horizontal plank of wooden board by tape with its head about 5 cm above the desktop. […] The test was performed in 1 h after last drug administration and the time of the mouse being immobile within last 4 min for 6 min period was recorded.

[4] = positive group 2.4 mg/kg, P<0.01

CNCCC(Oc1ccc(C(F)(F)F)cc1)c1ccccc1 (stereo not drawn) [fluoxetine hydrochloride]
the number of squares crossed by mouse (mice [1]; mice, positive control group 0.0024 g/kg (2.4 mg/kg), directly into the stomach, 1 h after last administration, last 3 min of 5 min, ±s, n = 10): 43.9 ± 13.3
effect on independent activity in the opening test compared with the control group (mice [1]; positive group 2.4 mg/kg, P>0.05): no significant difference
Immobile time in mouse forced swimming test (mice [2]; mice, positive control group 0.0024 g/kg (2.4 mg/kg), directly into the stomach, 1 h after last administration, last 4 min of 6 min, water 25° C., x ± s, n = 10): 83.5 s
effect on immobile time in mouse forced swimming test compared with the control group (mice [2]; [4]): highly significant difference
Immobile time in the mouse-tail suspension test (mice [3]; mice, positive control group 0.0024 g/kg (2.4 mg/kg), directly into the stomach, 1 h after last administration, last 4 min of 6 min, x ± s, n = 10): 73 s
effect on immobile time in mouse-tail suspension test compared with the control group (mice [3]; [4]): highly significant difference
